# Source: patent US8674111B2, “Oxazole and thiazole derivatives as ALX receptor agonists” (Actelion Pharmaceuticals Ltd., priority 2009, dated 2014)
# Target: T1, recombinant human ALX receptor (Homo sapiens, UniProt P25090)
# T1 construct: expressed in transfected cells; host or cells: HEK293 (HEK293-hALXR-Gα16)
# T1 sequence (P25090 1-351): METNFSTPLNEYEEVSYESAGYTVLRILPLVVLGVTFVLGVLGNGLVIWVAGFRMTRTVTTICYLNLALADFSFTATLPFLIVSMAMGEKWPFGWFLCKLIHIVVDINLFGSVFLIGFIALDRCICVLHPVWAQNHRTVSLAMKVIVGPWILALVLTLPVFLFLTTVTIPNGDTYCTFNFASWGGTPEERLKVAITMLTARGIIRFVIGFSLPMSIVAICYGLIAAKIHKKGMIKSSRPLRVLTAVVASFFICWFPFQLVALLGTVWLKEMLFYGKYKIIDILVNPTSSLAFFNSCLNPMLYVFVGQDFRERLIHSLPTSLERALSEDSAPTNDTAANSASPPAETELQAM
# Assay: Intracellular calcium measurements (FLIPR), ALX receptor agonistic activity
# Assay type: cell-based
# Conditions: HEK293-hALXR-Gα16 cells; Fluo-4 calcium fluorescence; normalized to WKYMVm 10 nM
# Experimental: The ALX receptor agonistic activity of the compounds of formula (I) is determined in accordance with the following experimental method.
# Intracellular Calcium Measurements:
# Cells expressing recombinant human ALX receptor and the G-protein Gα16 (HEK293-hALXR-Gα16) were grown to 80% confluency in Growing Medium (GM). Cells were detached from culture dishes with a cell dissociation buffer (Invitrogen, 13151-014), and collected by centrifugation at 1,000 rpm at rt for 5 min in Assay Buffer (AB) (equal parts of Hank's BSS (Gibco, 14065-049) and DMEM without Phenol Red (Gibco, 11880-028)). After 60 min incubation at 37° C. under 5% CO2 in AB supplemented with 1 μM Fluo-4 (AM) (Invitrogen, F14202) and 20 mM HEPES (Gibco, 15630-056), the cells were washed and resuspended in AB. They were then seeded onto 384-well FLIPR assay plates (Greiner, 781091) at 50,000 cells in 70 μl per well and sedimented by centrifugation at 1,000 rpm for 1 min. Stock solutions of test compounds were made up at a concentration of 10 mM in DMSO, and serially diluted in AB to concentrations required for activation dose response curves. WKYMVm (Phoenix Peptides) was used as a reference agonist. A FLIPR Tetra instrument (Molecular Devices) was operated according to the manufacturer's standard instructions, adding 4 μl of test compound dissolved at 10 mM in DMSO and diluted prior to the experiment in assay buffer to obtain the desired final concentration. Changes in fluorescence were monitored before and after the addition of test compounds at lex=488 nm and lem=540 nm. Emission peak values above base level after compounds addition were exported after base line subtraction. Values were normalized to high-level control (WKYMVm compound, 10 nM final concentration) after subtraction of the base line value (AB addition).
row,Structure (SMILES),EC50 [nM]
1,"CC(=O)c1ccn(Cc2nc(NC(=O)OCc3ccccc3Cl)co2)n1 [Example 3, [2-(3-Acetyl-pyrazol-1-ylmethyl)-oxazol-4-yl]-carbamic acid 2-chloro-benzyl ester]",0.7
2,"CC(=O)c1ccn(Cc2nc(NC(=O)OCc3ccc(F)cc3Cl)co2)n1 [Example 11, [2-(3-Acetyl-pyrazol-1-ylmethyl)-oxazol-4-yl]-carbamic acid 2-chloro-4-fluoro-benzyl ester]",0.5
3,"CC(=O)c1cccc(Cc2nc(NC(=O)OCc3cccc(OC(F)(F)F)c3)co2)c1 [Example 15, [2-(3-Acetyl-benzyl)-oxazol-4-yl]-carbamic acid 3-trifluoromethoxy-benzyl ester]",48
4,"CC(=O)CCCCc1nc(NC(=O)c2ncsc2-c2cccc(F)c2)co1 [Example 7, 5-(3-Fluoro-phenyl)-thiazole-4-carboxylic acid [2-(5-oxo-hexyl)-oxazol-4-yl]-amide]",784
5,"CC(=O)CCCCc1nc(NC(=O)OCc2ccccc2Cl)co1 [Example 1, [2-(5-Oxo-hexyl)-oxazol-4-yl]-carbamic acid 2-chloro-benzyl ester]",0.3
6,"CC(=O)c1ccc(Cc2nc(NC(=O)c3ncoc3-c3ccccc3)cs2)s1 [Example 18, 5-Phenyl-oxazole-4-carboxylic acid [2-(5-acetyl-thiophen-2-ylmethyl)-thiazol-4-yl]-amide]",1570
7,"CC(=O)c1cccc(Cc2nc(NC(=O)/C=C/c3ccc(C(F)(F)F)cc3)co2)c1 [Example 17, (E)-N-[2-(3-Acetyl-benzyl)-oxazol-4-yl]-3-(4-trifluoromethyl-phenyl)-acrylamide]",1310
8,"COc1cccc(COC(=O)Nc2coc(Cn3ccc(C(C)=O)n3)n2)c1 [Example 12, [2-(3-Acetyl-pyrazol-1-ylmethyl)-oxazol-4-yl]-carbamic acid 3-methoxy-benzyl ester]",1
9,"CC(=O)CCCCc1nc(NC(=O)c2ncoc2-c2ccccc2)co1 [Example 2, 5-Phenyl-oxazole-4-carboxylic acid [2-(5-oxo-hexyl)-oxazol-4-yl]-amide]",18
10,"CC(F)(F)CCCCc1nc(NC(=O)OCc2ccccc2Cl)co1 [Example 4, [2-(5,5-Difluoro-hexyl)-oxazol-4-yl]-carbamic acid 2-chloro-benzyl ester]",13
11,"CC(=O)c1ccc(Cc2nc(NC(=O)c3ncoc3-c3ccccc3)cs2)o1 [Example 20, 5-Phenyl-oxazole-4-carboxylic acid [2-(5-acetyl-furan-2-ylmethyl)-thiazol-4-yl]-amide]",62
12,"O=C(Nc1coc(Cn2cc(Br)cn2)n1)OCc1ccccc1Cl [Example 10, [2-(4-Bromo-pyrazol-1-ylmethyl)-oxazol-4-yl]-carbamic acid 2-chloro-benzyl ester]",72
13,"CC(=O)CCCCc1nc(NC(=O)c2ncoc2-c2ccc(F)cc2)co1 [Example 8, 5-(4-Fluoro-phenyl)-oxazole-4-carboxylic acid [2-(5-oxo-hexyl)-oxazol-4-yl]-amide]",86
14,"CC(=O)c1ccc(Cc2nc(NC(=O)c3nc(C)oc3-c3cccc(C)c3)cs2)o1 [Example 21, 2-Methyl-5-m-tolyl-oxazole-4-carboxylic acid [2-(5-acetyl-furan-2-ylmethyl)-thiazol-4-yl]-amide]",216
15,"CC(=O)c1ccc(Cc2nc(NC(=O)c3nc(C)oc3-c3cccc(Cl)c3)cs2)s1 [Example 19, 5-(3-Chloro-phenyl)-2-methyl-oxazole-4-carboxylic acid [2-(5-acetyl-thiophen-2-ylmethyl)-thiazol-4-yl]-amide]",3640
16,"Cc1cccc(-c2oc(C)nc2C(=O)Nc2coc(CCCCC(C)(F)F)n2)c1 [Example 5, 2-Methyl-5-m-tolyl-oxazole-4-carboxylic acid [2-(5,5-difluoro-hexyl)-oxazol-4-yl]-amide]",194
17,"CC(=O)c1ccc(Cc2nc(NC(=O)OCc3ccccc3Cl)co2)s1 [Example 14, [2-(5-Acetyl-thiophen-2-ylmethyl)-oxazol-4-yl]-carbamic acid 2-chloro-benzyl ester]",2.2
18,"CC(=O)c1ccn(Cc2nc(NC(=O)c3nc(C4CC4)sc3-c3ccccc3)co2)n1 [Example 16, 2-Cyclopropyl-5-phenyl-thiazole-4-carboxylic acid [2-(3-acetyl-pyrazol-1-ylmethyl)-oxazol-4-yl]-amide]",6560
19,"CC(=O)c1ccn(Cc2nc(NC(=O)OCc3ccc(C(F)(F)F)cc3)co2)n1 [Example 13, [2-(3-Acetyl-pyrazol-1-ylmethyl)-oxazol-4-yl]-carbamic acid 4-trifluoromethyl-benzyl ester]",12
20,"CCc1nc(C(=O)Nc2coc(CCCCC(C)=O)n2)c(-c2ccccc2)o1 [Example 9, 2-Ethyl-5-phenyl-oxazole-4-carboxylic acid [2-(5-oxo-hexyl)-oxazol-4-yl]-amide]",3.2
21,"CC(=O)CCCCc1nc(NC(=O)c2nc(C)oc2-c2cccc(C)c2)co1 [Example 6, 2-Methyl-5-m-tolyl-oxazole-4-carboxylic acid [2-(5-oxo-hexyl)-oxazol-4-yl]-amide]",9.8
